# Assays:
# [1] = test system: human ovarian cancer SK-OV-3
# Text: Test of the inhibitory activity of the water soluble paclitaxel derivatives on subcutaneously xenografted tumor of human ovarian cancer SK-OV-3 in nude mice: evaluating and comparing the inhibitory activity of the water soluble paclitaxel derivatives of the present invention, paclitaxel and Abraxane® on subcutaneously xenografted tumor of human ovarian cancer SK-OV-3 in nude mice.
# Human ovarian cancer SK-OV-3 cells were subcutaneously inoculated to nude mice. After the tumor volume reached 100-150 mm^3, the animals were randomly divided into groups (D0), and administered with the water soluble paclitaxel derivatives of the present invention, paclitaxel, and Abraxane®, respectively once per day for 5 days. The tumor volume was measured 2-3 times per week, the animals were weighed and the data were recorded until day 22 (D22) after grouping.
# (§1) The tumor volume (V) was calculated according to the equation: V=½×a×b^2, wherein a and b represent the length and the width, respectively.
# (§2) T/C (%)=(T−T0)/(C−C0)×100, wherein T and C represent the tumor volume at the end of the experiment; and T0 and C0 represent the tumor volume at the beginning of the experiment.
# in vivo [2] = conditions: male, SD, rat, iv, 5 mg/kg
# Procedure: After 5 min of administration, 0.3 ml of venous blood was taken from the retrobulbar venous plexus of the rats, placed in heparinized tubes, and centrifuged at 11,000 rpm for 5 min. Blood plasma was separated, and the concentrations of the compounds in the blood plasma were determined by liquid chromatography-mass spectrometry.
# [3] = In vitro dissociation of the water soluble taxane derivatives in blood plasma of rat; format: in vitro ADME, SD rats; conditions: 37° C.
# Procedure: The obtained water soluble taxane derivatives were formulated as 0.2 mg/ml aqueous solutions. […] After 2 min, 5 min and 10 min of incubation, 0.2 ml of solutions were respectively taken from each of the samples, and added to acetonitrile (0.4 ml) cooled to −20° C. for precipitation of protein.
# [4] = In vitro dissociation of the water soluble taxane derivatives in blood plasma of rabbit; format: in vitro ADME, New Zealand white rabbits; conditions: 37° C.
# Procedure: The obtained water soluble taxane derivatives were formulated as 0.2 mg/ml aqueous solutions. […] After 5 min, 20 min and 60 min of incubation, 0.2 ml of solutions were respectively taken from each of the samples, and added to acetonitrile (0.4 ml) cooled to −20° C. for precipitation of protein.
# [5] = rats, 5 mg/kg intravenous, 5 min after administration
# Procedure: (§3) After 5 min of administration, 0.3 ml of venous blood was taken from the retrobulbar venous plexus of the rats, placed in heparinized tubes, and centrifuged at 11,000 rpm for 5 min. Plasma was separated, and the concentrations of the compounds in the plasma were determined by liquid chromatography □-mass spectrometry.
# KM mice = test: ED50 and LD50 test concerning anesthesia (sequential method) in mice; format: in vivo; conditions: confirmation test; for ED50: Mus musculus, anesthesia (loss of righting reflex); for ED50 / Mouse LD50: caudal vein injection
# Procedure: (§4) Test samples for the experiment on rabbit were formulated to have corresponding concentrations based on the results from a preliminary test. […] Rats and mice were administered with samples having a fixed concentration of drugs, while the volume of administration altered according to actual situation. The volume of administration to rabbits was 1 mL/kg body weight.
# (§5) ED50 and LD50 values concerning anesthesia were determined using a sequential method. Healthy KM mice (male), SD rats (male) and New Zealand White rabbits were used for test. […] For rabbits, the compounds were administered by injection at a constant rate via ear vein for 30 seconds. Before the test, a preliminary test was conducted to determine an approximate dosage (volume of administration) that leads to anesthetization (or death) of animals, which was set as the middle dosage in the formal test. […] The disappearance of righting reflex or death was used as indicators of pharmacological efficacy or toxicity, respectively. The formal test began with the administration of the middle dosage. If animals were anesthetized, a lower dosage was administered; if animals were not anesthetized, a higher dosage was administered, until the cycle was repeated for 3-4 times. LD50 and ED50 were calculated by a sequential method aot425 software. TI was calculated according to the following equation: TI=LD50/ED50.
# SD rats = test: ED50 and LD50 test concerning anesthesia (sequential method) in rats; format: in vivo; conditions: for ED50: Rattus norvegicus, anesthesia (loss of righting reflex); for ED50 / Rat LD50: caudal vein injection
# Procedure: as §4, §5
# Kunming mice = test: Latent period and persistent period of anesthesia in mice; format: in vivo
# mice = conditions: dosage 1.25 * ED50 (propofol 15 mg/kg, fospropofol 85 mg/kg); cited from earlier work
# [6] = Solubility of the water soluble taxane derivatives in physiological saline; format: physicochemical
# [7] = test system: human prostate cancer PC-3; conditions: 14 mg/kg;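 further: human prostate cancer PC-3 cells implanted under the skin of nude mice to form the xenograft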
# Text: Test of the inhibitory activity of the water soluble docetaxel derivatives on subcutaneously xenografted tumor of human prostate cancer PC-3 in nude mice: evaluating and comparing the inhibitory activity of the water soluble docetaxel derivatives and docetaxel on subcutaneously xenografted tumor of human prostate cancer PC-3 in nude mice.
# Human prostate cancer PC-3 cells were subcutaneously inoculated into nude mice. After the tumor volume reached 100-150 mm^3, the animals were randomly divided into several groups, and administered with the water soluble docetaxel derivatives of the present invention and docetaxel, respectively once on the same day (D0). The tumor volume was measured 2-3 times per week, the animals were weighed and the data were recorded until day 20 (D20) after grouping.
# as §1, §2
# in vivo [8] = conditions: male, SD, rat, iv, 5 mg/kg; remark: listed apart in the source
# Procedure: as §3
# [9] = LD50 of the carboxylic acid derivative in mice via the caudal vein; conditions: mouse, in vivo, intravenous, solution in physiological saline pH 7.4
# Text: In addition, the inventors dissolved the compound of the present invention having the following formula in physiological saline, adjusted the pH of the solution to 7.4, and administered the solution to mice through the caudal vein.
# [10] = D22, 24 mg/kg (paclitaxel 16 mg/kg) D0-4 IV
# [11] = intravenous injection, dosage 2 * ED50, 3 mg/ml solution
# [12] = propofol 25 mg/kg (2 * ED50), results from the present lab
# [13] = PC-3 xenograft, nude mice, D0 IV, single dose, D20
structure (smiles),measurement,setting,value
"CC(=O)O[C@H]1C(=O)[C@@]2(C)[C@H]([C@H](OC(=O)c3ccccc3)[C@]3(O)C[C@H](OC(=O)[C@H](O)[C@@H](NC(=O)c4ccccc4)c4ccccc4)C(C)=C1C3(C)C)[C@]1(OC(C)=O)CO[C@@H]1C[C@@H]2O [paclitaxel, reference compound]",Tumor volume (D0),"[1]; D0, at grouping, 24 mg/kg (paclitaxel 16 mg/kg) D0-4 IV",134.6 ± 19.7 mm^3
same,T/C (%) D22,[1]; [10],−60%
same,Tumor volume (D22),[1]; [10],53.7 ± 11.2 mm^3
same,Tumor inhibitory percent (%) D22,"[1]; D22, 24 mg/kg (paclitaxel 16 mg/kg) D0-4 IV, P=0.000 compared to the control",160%
same,Weight change (%) D4,"[1]; mouse, in vivo",−4.8%
same,concentration at 5 min,in vivo [2],1790 ng/mL
"CC(=O)O[C@@]12CO[C@@H]1C[C@H](O)[C@@]1(C)C(=O)[C@H](O)C3=C(C)[C@@H](OC(=O)[C@H](OC(=O)C(F)CCN(C)C)[C@@H](NC(=O)OC(C)(C)C)c4ccccc4)C[C@@](O)([C@@H](OC(=O)c4ccccc4)[C@H]21)C3(C)C.Cl (stereo partly drawn) [Compound 06, 2′-O-[4-(N,N-dimethyl)amino-2(R,S)-fluorobutyryl]docetaxel hydrochloride]",dissociation percent,[3]; 2 min,56.4%
same,dissociation percent,[3]; 5 min,91.1%
same,dissociation percent,[3]; 10 min,100%
same,dissociation percent,[4]; 5 min,75.6%
same,dissociation percent,[4]; 20 min,98.6%
same,dissociation percent,[4]; 60 min,100%
same,detection of the administered derivative in the blood plasma,[5],cannot be detected
"CC(C)c1cccc(C(C)C)c1O [Propofol, reference compound]",TI Mouse,KM mice; 3 mg/ml solution,4.9
same,TI Mouse,KM mice; 6 mg/ml solution,3.8
same,ED50,KM mice; 3 mg/ml solution,7.9 mg/kg
same,ED50,KM mice; 6 mg/ml solution,11.3 mg/kg
same,Mouse LD50,KM mice; 3 mg/ml solution,38.4 mg/kg
same,Mouse LD50,KM mice; 6 mg/ml solution,42.9 mg/kg
same,TI Rat,SD rats; 3 mg/ml solution,5.5
same,TI Rat,SD rats; 6 mg/ml solution,4.9
same,ED50,SD rats; 3 mg/ml solution,3.91 mg/kg
same,ED50,SD rats; 6 mg/ml solution,3.5 mg/kg
same,Rat LD50,SD rats; 3 mg/ml solution,21.5 mg/kg
same,Rat LD50,SD rats; 6 mg/ml solution,17.4 mg/kg
same,Latent Period,Kunming mice; [11],8.4 ± 1.1 s
same,Persistent period,Kunming mice; [11],324.8 ± 98.9 s
same,Latent Period,Kunming mice; [12],8.4 ± 1.1 s
same,Persistent period,Kunming mice; [12],324.8 ± 98.9 s
same,Latent Period,mice,10.7 s
"CC(=O)OC12COC1CC(O)C1(C)C(=O)C(O)C3=C(C)C(OC(=O)C(OC(=O)C(F)CCN(C)C)C(NC(=O)OC(C)(C)C)c4ccccc4)CC(O)(C(OC(=O)c4ccccc4)C21)C3(C)C.Cl [Compound 04, 2′-O-[4-(N,N-dimethyl)amino-2(R)-fluorobutyryl]docetaxel Hydrochloride]",dissociation percent,[3]; 2 min,58.6%
same,dissociation percent,[3]; 5 min,92.6%
same,dissociation percent,[3]; 10 min,100%
same,dissociation percent,[4]; 5 min,80.2%
same,dissociation percent,[4]; 20 min,93.5%
same,dissociation percent,[4]; 60 min,100%
same,detection of the administered derivative in the blood plasma,[5],cannot be detected
"CC(=O)O[C@@]12CO[C@@H]1C[C@H](O)[C@@]1(C)C(=O)[C@H](O)C3=C(C)[C@@H](OC(=O)[C@H](OC(=O)C(F)(F)CCCCCN4CC4)[C@@H](NC(=O)OC(C)(C)C)c4ccccc4)C[C@@](O)([C@@H](OC(=O)c4ccccc4)[C@H]21)C3(C)C.CS(=O)(=O)O [Compound 14, 2′-O-[7-N-(aziridin-1-yl)-2,2-difluoroheptanoyl]docetaxel methanesulfonate]",Solubility,[6],14.3 mg/mL
same,dissociation percent,[3]; 2 min,42.1%
same,dissociation percent,[3]; 5 min,55.7%
same,dissociation percent,[3]; 10 min,72.5%
"CC(=O)O[C@H]1C(=O)[C@@]2(C)[C@H]([C@H](OC(=O)c3ccccc3)[C@]3(O)C[C@H](OC(=O)[C@H](OC(=O)C(F)(CCCCCCN(C)C4CCCC4)C(F)(F)F)[C@@H](NC(=O)c4ccccc4)c4ccccc4)C(C)=C1C3(C)C)[C@]1(OC(C)=O)CO[C@@H]1C[C@@H]2O.CS(=O)(=O)O (stereo partly drawn) [Compound 15, 2′-O-[8-(N-methyl-N-cyclopentyl)amino-2(R,S)-2-trifluoromethyl-2-fluorooctanoyl]paclitaxel methanesulfonate]",Solubility,[6],15.0 mg/mL
same,dissociation percent,[3]; 2 min,35.0%
same,dissociation percent,[3]; 5 min,46.2%
same,dissociation percent,[3]; 10 min,57.9%
"CC(=O)O[C@@]12CO[C@@H]1C[C@H](O)[C@@]1(C)C(=O)[C@H](O)C3=C(C)[C@@H](OC(=O)[C@H](O)[C@@H](NC(=O)OC(C)(C)C)c4ccccc4)C[C@@](O)([C@@H](OC(=O)c4ccccc4)[C@H]21)C3(C)C [docetaxel, reference compound]",Tumor volume (mm^3) (D0),"[7]; PC-3 xenograft, nude mice, D0 IV, single dose, D0 (baseline at grouping)",111.5 ± 1.3 mm^3
same,T/C (%) D20,[7]; [13],−27%
same,Tumor volume (mm^3) (D20),[7]; [13],81.4 ± 25.1 mm^3
same,Tumor inhibitory percent (%) D20,"[7]; PC-3 xenograft, nude mice, D0 IV, single dose, D20, P(D20)=0.000 vs control",127%
same,Weight change (%) D6,"[7]; mouse, in vivo, iv",−12.3%
same,concentration at 5 min,in vivo [8],769 ng/mL
"CC(=O)O[C@@]12CO[C@@H]1C[C@H](O)[C@@]1(C)C(=O)[C@H](O)C3=C(C)[C@@H](OC(=O)[C@H](OC(=O)[C@@H](F)CCN(C)C)[C@@H](NC(=O)OC(C)(C)C)c4ccccc4)C[C@@](O)([C@@H](OC(=O)c4ccccc4)[C@H]21)C3(C)C.Cl [Compound 05, 2′-O-[4-(N,N-dimethyl)amino-2(S)-fluorobutyryl]docetaxel hydrochloride]",dissociation percent,[3]; 2 min,56.4%
same,dissociation percent,[3]; 5 min,91.1%
same,dissociation percent,[3]; 10 min,100%
same,dissociation percent,[4]; 5 min,79.3%
same,dissociation percent,[4]; 20 min,91.8%
same,dissociation percent,[4]; 60 min,100%
same,detection of the administered derivative in the blood plasma,[5],cannot be detected
CN(C)CC[C@@H](F)C(=O)O.Cl,LD50,[9],> 1500 mg/kg

# Source: patent US10239851B2 (priority 2014, dated 2019)
